Test results reported in patent US20180325889A1, “IMMUNOREGULATORY AGENTS” (FLEXUS BIOSCIENCES, INC., priority 2014, published 2018).

What follows are compounds tested against T1, human IDO1/HEK293 cells (Homo sapiens, UniProt P14902) (assay: HEK Human IDO-1 cell-based IDO inhibition assay (kynurenine production)). Details: HEK293 cells stably expressing human IDO1, 20 hours incubation, absorbance at 490 nm; read-out: HEK Human IDO-1 Bio Activity (IDO IC50).
T1 construct: expressed in transfected cells
T1 sequence (P14902 whole entry): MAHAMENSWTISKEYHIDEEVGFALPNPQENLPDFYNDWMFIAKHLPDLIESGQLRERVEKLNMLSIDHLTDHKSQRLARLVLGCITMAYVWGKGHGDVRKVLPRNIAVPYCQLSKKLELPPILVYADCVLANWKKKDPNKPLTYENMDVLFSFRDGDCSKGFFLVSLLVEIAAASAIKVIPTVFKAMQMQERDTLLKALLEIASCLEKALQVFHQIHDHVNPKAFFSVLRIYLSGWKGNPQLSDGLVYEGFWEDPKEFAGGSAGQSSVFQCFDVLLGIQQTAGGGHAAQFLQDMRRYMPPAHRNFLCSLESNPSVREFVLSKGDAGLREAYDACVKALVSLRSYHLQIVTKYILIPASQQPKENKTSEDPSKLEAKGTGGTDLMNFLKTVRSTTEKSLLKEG
Procedure: They were cultured in medium (DMEM with 10% FBS) containing 1 mg/ml G418 for two weeks.
The human IDO1/HEK293 cells were seeded at 10,000 cells per 50 μL per well with RPMI/phenol red free media contains 10% FBS in a 384-well black wall clear bottom tissue culture plate (Matrix Technologies LLC) 100 nL of certain concentration of compound was then added to each well using ECHO liquid handling systems. The cells were incubated for 20 hours in 37° C. incubator with 5% CO2.
The compound treatments were stopped by adding trichloroacetic acid (Sigma-Aldrich) to a final concentration at 0.2%. The cell plate was further incubated at 50° C. for 30 minute. The equal volume supernatant (20 μL) and 0.2% (w/v) Ehrlich reagent (4-dimethylaminobenzaldehyde, Sigma-Aldrich) in glacial acetic acid were mixed in a new clear bottom 384-well plate. This plate was then incubated at room temperature for 30 minute. The absorbance at 490 nm was measured on Envision plate reader.

IC50 [nM]	Compound
< 50	Cc1ccccc1C(=O)N[C@H](C)[C@H]1CC[C@@H](c2ccnc3ccc(F)cc32)CC1 [Example 49, N-((R)-1-((1s,4S)-4-(6-fluoroquinolin-4-yl)cyclohexyl)ethyl)-2-methylbenzamide]
< 250	CCC(NC(=O)c1ccc(Cl)cc1)C1CCC(c2ccnc3ccc(F)cc23)CC1 (single isomer, unassigned) [Example 164a, 4-Chloro-N-(1-(4-(6-fluoroquinolin-4-yl)cyclohexyl)propyl)benzamide]
< 50	COc1ccc(C(=O)N[C@H](C)[C@H]2CC[C@@H](c3ccnc4ccc(F)cc43)CC2)cc1 [Example 68, N-((R)-1-((1s,4S)-4-(6-fluoroquinolin-4-yl)cyclohexyl)ethyl)-4-methoxybenzamide]
< 50	CCC(NC(=O)c1ccc(Cl)cc1)C1CCC(c2ccnc3ccc(F)cc23)CC1 (single isomer, unassigned) [Example 164b, 4-Chloro-N-(1-(4-(6-fluoroquinolin-4-yl)cyclohexyl)propyl)benzamide]
< 50	C[C@@H](NC(=O)c1ccccc1Cl)[C@H]1CC[C@@H](c2ccnc3ccc(F)cc32)CC1 [Example 56, 2-chloro-N-((R)-1-((1s,4S)-4-(6-fluoroquinolin-4-yl)cyclohexyl)ethyl)benzamide]
< 2000	O=C(Nc1ccc(F)cc1)NC1CCN(c2ccnc3ccc(F)cc23)CC1 [Example 93, 1-(4-Fluorophenyl)-3-(1-(6-fluoroquinolin-4-yl)piperidin-4-yl)urea]
< 50	CCC(NC(=O)c1ccc(-n2cccc2)cc1)[C@H]1CC[C@@H](c2ccnc3ccc(C(F)(F)F)cc32)CC1 (stereo partly shown) [Example 255, 4-(1H-pyrrol-1-yl)-N-(1-((1s, 4s)-4-(6-(trifluoromethyl)quinolin-4-yl)cyclohexyl)propyl)benzamide]
< 250	CC(NC(=O)c1ccc(Cl)cc1)C1CCC(c2ccnc(C(F)(F)F)c2)CC1 (single isomer, unassigned) [Example 214, 4-chloro-N-(1-(4-(2-(trifluorornethyl)pyridin-4-yl)cyclohexyl)ethyl)benzamide]
< 2000	O=C(Cc1ccc(Cl)cc1)N[C@H]1CC[C@@H](c2ccnc3ccc(F)cc32)CC1 [Example 147, 2-(4-chlorophenyl)-N-(cis-4-(6-fluoroquinolin-4-yl)cyclohexyl)acetamide]
< 50	C[C@@H](NC(=O)c1ccc(C2CC2)cc1)[C@H]1CC[C@@H](c2ccnc3ccc(F)cc32)CC1 [Example 247, 4-cyclopropyl-N-((R)-1-((1s,4S)-4-(6-fluoroquinolin-4-yl)cyclohexyl)ethyl)benzamide]
< 250	O=C(Nc1ccc(Cl)cc1)N[C@H]1CC[C@@H](c2ccnc3ccc(F)cc32)CC1 [Example 125, 1-(4-Chlorophenyl)-3-(cis-4-(6-fluoroquinolin-4-yl)cyclohexyl)urea]
< 50	C[C@@H](NC(=O)c1ccc(-c2nnco2)cc1)[C@H]1CC[C@@H](c2ccnc3ccc(F)cc32)CC1 [Example 244, N-((R)-1-((1s,4S)-4-(6-fluoroquinolin-4-yl)cyclohexyl)ethyl)-4-(1,3,4-oxadiazol-2-yl)benzamide]
< 2000	O=C(N[C@H]1CC[C@H](c2ccnc3ccc(F)cc32)CC1)c1ccc(Cl)cc1 [Example 146, 4-chloro-N-(trans-4-(6-fluoroquinolin-4-yl)cyclohexyl)benzamide]
< 50	O=C(Nc1ccc(Cl)cc1)N[C@H]1CC[C@H](c2ccnc3ccc(F)cc32)CC1 [Example 119, 1-(4-Chlorophenyl)-3-(trans-4-(6-fluoroquinolin-4-yl)cyclohexyl)urea]
< 250	Cc1ccc(C(=O)NCC2CCN(c3ccnc4ccc(F)cc34)CC2)cc1 [Example 86, N-((1-(6-Fluoroquinolin-4-yl)piperidin-4-yl)methyl)-4-methylbenzamide]
< 250	CC(NC(=O)c1ccc(Cl)cc1)C1CCC(c2ccnc3ccnn23)CC1 (stereo not shown) [Example 197, 4-chloro-N-(1-(4-(pyrazolo[1,5-a]pyrimidin-7-yl)cyclohexyl)ethyl)benzamide]
< 250	O=C(NCC1CCN(c2ccnc3ccc(F)cc23)CC1)c1ccc(F)cc1 [Example 89]
< 250	Fc1ccc2nccc([C@H]3CC[C@@H](NCc4ccccc4)CC3)c2c1 [Example 131, cis-N-Benzyl-4-(6-fluoroquinolin-4-yl)cyclohexanamine]
< 2000	O=C(Cc1ccc(Cl)cc1)N[C@H]1CC[C@H](c2ccnc3ccc(F)cc32)CC1 [Example 144, 2-(4-Chlorophenyl)-N-(trans-4-(6-fluoroquinolin-4-yl)cyclohexyl)acetamide]

IC50 [nM]	Compound
< 250	O=C(NCC1CCN(c2ccnc3ccc(F)cc23)CC1)c1ccc(Cl)c(Cl)c1 [Example 87, 3,4-Dichloro-N-((1-(6-fluoroquinolin-4-yl)piperidin-4-yl)methyl)benzamide]
< 2000	CCC(NC(=O)c1ccc(Cl)cc1)[C@H]1CC[C@@H](Oc2ccnc3ccc(C(F)(F)F)cc23)CC1 (mixture of isomers) [Example 78, (±)-4-Chloro-N-(1-((cis)-4-((6-(trifluoromethyl)quinolin-4-yl)oxy)cyclohexyl)propyl)benzamide]
< 50	CCC(NC(=O)c1ccc(Cl)cc1)C1CCC(c2cccc(C(F)F)n2)CC1 (single isomer, unassigned) [Example 231e, 4-chloro-N-(1-(4-(6-(difluoromethyl)pyridin-2-yl)cyclohexyl)propyl)benzamide]
< 50	C[C@@H](NC(=O)c1ccc(-c2cscn2)cc1)[C@H]1CC[C@@H](c2ccnc3ccc(F)cc32)CC1 [Example 243, N-((R)-1-((1s,4S)-4-(6-fluoroquinolin-4-yl)cyclohcxyl)cthyl)-4-(thiazol-4-yl)benzamide]
< 2000	C[C@@H](NC(=O)c1ccc(-c2ccc(S(C)(=O)=O)nc2)cc1)[C@H]1CC[C@@H](c2ccnc3ccc(F)cc32)CC1 [Example 237, N-((R)-1-((1s,4S)-4-(6-fluoroquinolin-4-yl)cyclohexyl)ethyl)-4-(6-(methylsulfonyl)pyridin-3-yl)benzamide]
< 2000	Cc1cc(C2CCC(C(C)NC(=O)c3ccc(Cl)cc3)CC2)ccn1 (single isomer, unassigned) [Example 157e, 4-Chloro-N-(1-(4-(2-methylpyridin-4-yl)cyclohexyl)ethyl) Benzamide]
< 50	C[C@@H](NC(=O)c1ccc(-c2cncnc2)cc1)[C@H]1CC[C@@H](c2ccnc3ccc(F)cc32)CC1 [Example 234, N-((R)-1-((1s,4S)-4-(6-fluoroquinolin-4-yl)cyclohexyl)ethyl)-4-(pyrimidin-5-yl)benzamide]
< 50	CCC(NC(=O)c1ccc(Cl)cc1)[C@H]1CC[C@@H](c2ccnc3ccc(C(F)(F)F)cc32)CC1 (stereo partly shown) [Example 254, 4-chloro-N-(1-((1s, 4s)-4-(6-(trifluoromethyl)quinolin-4-yl)cyclohexyl)propyl)benzamide]
< 2000	CC1(CNC(=O)c2ccc(-c3ccccc3)cc2)CCN(c2ccnc(C(F)(F)F)c2)CC1 [Example 228, N-((4-Methyl-1-(2-(trifluoromethyl)pyridin-4-yl)piperidin-4-yl)methyl)-[1,1′-biphenyl]-4-carboxamide]
< 50	CC[C@H](NC(=O)c1ccc(Cl)cc1)[C@H]1CC[C@H](c2cnc3ccccc3c2)CC1 (single isomer, unassigned) [Example 203d]
< 50	Cc1cc(C2CCC(C(C)NC(=O)c3ccc(Cl)cc3)CC2)ccn1 (single isomer, unassigned) [Example 157b, 4-Chloro-N-(1-(4-(2-methylpyridin-4-yl)cyclohexyl)ethyl) Benzamide]
< 50	Cc1c(C2CCC(C(C)NC(=O)c3ccc(Cl)cc3)CC2)ccnc1F (stereo not shown) [Example 158a, 4-chloro-N-(1-(4-(2-fluoro-3-methylpyridin-4-yl)cyclohexyl)ethyl)benzamide]
< 2000	CC1(CNC(=O)c2ccc(Cl)cc2)CCN(c2ccnc(C(F)(F)F)c2)CC1 [Example 227, 4-Chloro-N-((4-methyl-1-(2-(trifluoromethyl)pyridin-4-yl)piperidin-4-yl)methyl)benzamide]
< 50	Cc1ncc(-c2ccc(C(=O)N[C@H](C)[C@H]3CC[C@@H](c4ccnc5ccc(F)cc54)CC3)cc2)s1 [Example 238, N-((R)-1-((1s,4S)-4-(6-fluoroquinolin-4-yl)cyclohexyl)ethyl)-4-(2-methylthiazol-5-yl)benzamide]
< 50	CC(NC(=O)c1ccc(Cl)cc1)C1CCC(c2ccnc(C(F)(F)F)c2)CC1 (single isomer, unassigned) [Example 213, 4-chloro-N-(1-(4-(2-(trifluoromethyl)pyridin-4-yl)cyclohexyl)ethyl)benzamide]
< 50	C[C@@H](NC(=O)c1ccc(-n2cccc2)cc1)[C@H]1CC[C@@H](c2ccnc3ccc(F)cc32)CC1 [Example 195, N-((R)-1-(cis-4-(6-fluoroquinolin-4-yl)cyclohexyl)ethyl)-4-(1H-pyrrol-1-yl)benzamide]
< 2000	CC(NC(=O)c1ccc(Cl)cc1)C1CCC(c2ccnc(C(F)(F)F)c2)CC1 (single isomer, unassigned) [Example 215, 4-chloro-N-(1-(4-(2-(trifluoromcthyl)pyridin-4-yl)cyclohcxyl)ethyl)benzamide]
< 2000	CCC(NC(=O)c1ccc(C#N)cc1)C1CCC(c2ccnc3ccc(F)cc23)CC1 (single isomer, unassigned) [Example 165a, 4-Cyano-N-(1-(4-(6-fluoroquinolin-4-yl)cyclohexyl)propyl)benzamide]
